These results are taken from ChEMBL document CHEMBL1130937, “Stereoselective synthesis of a novel and bifunctional endothelin antagonist, IRL 3630” (Bioorg Med Chem Lett, 1998).

Experiment [1] concerns the target T1, Endothelin receptor type B (Homo sapiens, UniProt P24530).
T1 sequence (P24530 whole entry): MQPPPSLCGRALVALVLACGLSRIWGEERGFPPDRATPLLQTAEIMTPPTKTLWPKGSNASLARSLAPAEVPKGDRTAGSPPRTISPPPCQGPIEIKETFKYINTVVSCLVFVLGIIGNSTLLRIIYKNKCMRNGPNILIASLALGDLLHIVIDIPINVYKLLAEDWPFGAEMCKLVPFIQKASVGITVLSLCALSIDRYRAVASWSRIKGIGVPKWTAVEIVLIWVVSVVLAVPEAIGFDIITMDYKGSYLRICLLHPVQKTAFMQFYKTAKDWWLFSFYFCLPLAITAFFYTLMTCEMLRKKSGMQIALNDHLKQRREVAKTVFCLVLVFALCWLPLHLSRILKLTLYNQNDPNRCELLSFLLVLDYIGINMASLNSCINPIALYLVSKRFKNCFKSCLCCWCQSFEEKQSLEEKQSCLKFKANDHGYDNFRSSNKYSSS
The experiment is described as follows: Compound was tested for the binding affinity against Endothelin B receptor.

Experiment [2] deals with T2, Endothelin-1 receptor (Homo sapiens, UniProt P25101).
T2 sequence (P25101 whole entry): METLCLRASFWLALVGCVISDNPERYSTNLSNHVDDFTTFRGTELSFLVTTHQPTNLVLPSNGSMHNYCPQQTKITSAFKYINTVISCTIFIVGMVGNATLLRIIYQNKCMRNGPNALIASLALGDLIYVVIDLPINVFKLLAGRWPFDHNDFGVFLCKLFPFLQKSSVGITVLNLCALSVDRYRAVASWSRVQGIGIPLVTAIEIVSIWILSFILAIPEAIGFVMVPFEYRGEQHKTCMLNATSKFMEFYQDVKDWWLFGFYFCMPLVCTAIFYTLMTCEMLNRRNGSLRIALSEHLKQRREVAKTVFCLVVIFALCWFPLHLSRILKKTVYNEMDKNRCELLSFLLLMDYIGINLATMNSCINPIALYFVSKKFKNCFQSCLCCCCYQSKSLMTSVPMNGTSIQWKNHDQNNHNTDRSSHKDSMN
The experiment can be described thus: Compound was tested for the binding affinity against Endothelin A receptor.

Take `CCCCS(=O)(=O)NC(=O)[C@@H](NC(=O)[C@H](Cc1ccc(-c2ccno2)cc1)N(C)C(=O)c1cc(C)cc(C)c1)C(C)C`: the inhibition constant (Ki) (usually a measure of affinity in units of concentration, obtained from inhibition or displacement) in experiment [1] came out at 1.2 µM; in experiment [2], 6.8 µM.
On the same counts, the results for `CCCCS(=O)(=O)NC(=O)[C@H](NC(=O)[C@@H](Cc1ccc(-c2ccno2)cc1)N(C)C(=O)c1cc(C)cc(C)c1)C(C)C` are 0.024 µM and 0.85 µM.
In experiment [2], `CCCCS(=O)(=O)NC(=O)[C@@H](NC(=O)[C@@H](Cc1ccc(-c2ccno2)cc1)N(C)C(=O)c1cc(C)cc(C)c1)C(C)C` showed a Ki of 0.0015 µM.
Turning to `CCCCS(=O)(=O)NC(=O)[C@H](NC(=O)[C@H](Cc1ccc(-c2ccno2)cc1)N(C)C(=O)c1cc(C)cc(C)c1)C(C)C`, the inhibitory constant (Ki) in experiment [1] came out at 1.2 µM; in experiment [2], 27 µM.
